From ChEMBL document CHEMBL1144944, “Discovery of an orally efficacious inhibitor of coagulation factor Xa which incorporates a neutral P1 ligand” (J Med Chem, 2003) come the findings set out here.

SMILES strings stand for the structures.

One data set has as its target Serine protease 1 (Homo sapiens, UniProt P07477). In words: Binding affinity towards trypsin.
In another data set the target is Prothrombin (Homo sapiens, UniProt P00734). In words: Binding affinity towards thrombin.
The next data set addresses Coagulation factor X (Homo sapiens, UniProt P00742). Put plainly: In vitro binding affinity for human Coagulation factor X.
In a further data set the test system is Caco-2. In words: Compound was tested in vitro for its percent absorption towards CaCo-2 cell monolayer. Format: functional, cell-based. The conditions noted are these: Homo sapiens.
A short description of data set [1]: Ionization constant was determined for the compound. Format: physicochemical.
The nature of data set [2]: Oral bioavailability in dog (dose 10 mg/kg). The format is ADME, organism-based, Canis lupus familiaris. The conditions noted are these: in vivo.
The nature of data set [3]: Half life period after peroral administration (10 mpk) was determined in dog. The format is ADME, organism-based, Canis lupus familiaris. The conditions noted are these: in vivo, po, 10 mg/kg.
Data set [4] in a line: Maximum plasma concentration after peroral administration (10 mpk) was determined in dog. The format is ADME, organism-based, Canis lupus familiaris. Set-up: route oral. The following applies: po, 10 mg/kg.
The nature of data set [5]: Ionization constant is the negative logarithm of the equilibrium coefficient of the neutral and charged forms of the compound. Format: physicochemical.
Another data set is filed under the species Homo sapiens. In words: Concentration of inhibitor required to double the activated partial thromboplastin time in human was determined. The format is functional, organism-based.
For a further data set, the species on record is Canis familiaris. Put plainly: Concentration of inhibitor required to double the activated partial thromboplastin time in dog was determined. Format: functional, organism-based. The following applies: Canis lupus familiaris.
Data set [6] is described as follows: Percent oral bioavailability after peroral administration (5 mpk) was determined in dog. Format: ADME, organism-based, Canis lupus familiaris. The following applies: in vivo, 5 mg/kg.
Data set [7] can be described thus: Half life period after peroral administration (5 mpk) was determined in dog. The format is ADME, organism-based, Canis lupus familiaris. The following applies: in vivo, po, 5 mg/kg.
A short description of data set [8]: Maximum plasma concentration after peroral administration (5 mpk) was determined in dog. The format is ADME, organism-based, Canis lupus familiaris. Set-up: route oral. The following applies: po, 5 mg/kg.

Chain of Serine protease 1 (P07477 whole entry): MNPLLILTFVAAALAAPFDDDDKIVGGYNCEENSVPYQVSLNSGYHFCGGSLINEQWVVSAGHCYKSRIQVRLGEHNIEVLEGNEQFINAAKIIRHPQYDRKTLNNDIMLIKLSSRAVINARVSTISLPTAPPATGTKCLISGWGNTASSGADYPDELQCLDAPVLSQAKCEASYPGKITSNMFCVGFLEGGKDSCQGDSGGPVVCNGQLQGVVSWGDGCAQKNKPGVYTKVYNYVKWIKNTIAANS
Chain of Coagulation factor X (P00742 41-179 limits assumed): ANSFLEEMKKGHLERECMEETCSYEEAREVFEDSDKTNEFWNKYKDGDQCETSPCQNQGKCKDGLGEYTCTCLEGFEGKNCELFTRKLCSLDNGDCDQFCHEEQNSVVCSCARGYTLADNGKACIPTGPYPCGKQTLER
Chain of Coagulation factor X (P00742 235-488 limits assumed): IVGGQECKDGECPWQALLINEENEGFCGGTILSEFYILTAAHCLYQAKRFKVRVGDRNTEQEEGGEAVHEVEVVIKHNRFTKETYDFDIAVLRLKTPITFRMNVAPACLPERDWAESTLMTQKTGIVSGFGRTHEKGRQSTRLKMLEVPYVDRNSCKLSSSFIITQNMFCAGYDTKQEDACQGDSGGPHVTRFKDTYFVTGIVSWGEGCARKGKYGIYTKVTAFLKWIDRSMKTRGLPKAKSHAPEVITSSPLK

Broadly, the Ki is the dissociation constant of the complex between target and ligand, obtained from inhibition or displacement. Turning to `Cn1c(CN2CCN(S(=O)(=O)c3cc4ccc(Cl)cc4s3)CC2=O)cc2cnccc21`, the inhibition constant (Ki) was over 2900 nM on Serine protease 1, over 3900 nM at Prothrombin and 3 nM at Coagulation factor X. In the data set on Caco-2, this compound registered an Absorption of 3%.

Consider `O=C1CN(S(=O)(=O)c2ccc(-c3ccc(Cl)s3)s2)CCN1Cc1cc2c[nH]ccc-2n1`, for which affinity on Coagulation factor X was put at a Ki of 23 nM.

A word on the pKa: it is the pH at which an ionisable group is half protonated. On to `O=C1CN(S(=O)(=O)c2cc3ccc(Cl)cc3s2)CCN1Cc1nc2cc[nH]cc-2n1`, for which the Ki was over 2900 nM at Serine protease 1, over 3900 nM at Prothrombin and over 1200 nM at Coagulation factor X. The compound further came in with a pKa in data set [1] of 6.1.

The bioavailability is dose-corrected exposure relative to a reference, in per cent. A high value points to much systemic uptake. The half-life is the time in which the quantity being followed falls by half. A lower half-life goes with fast loss. The Cmax is the peak of the concentration-time curve. In [2], `O=C1CN(S(=O)(=O)c2cc3ccc(Cl)cc3s2)CCN1Cc1cc2cnccc2n1CCO` showed a bioavailability of 11%. The half-life in [3] came out at 139 min. Moreover, in data set [4], the peak level (Cmax) was 783 nM.

Turning to `O=C1CN(S(=O)(=O)c2cc3ncc(Cl)cc3s2)CCN1Cc1cc2c[nH]ccc-2n1`, on Coagulation factor X, the inhibition constant Ki turned out to be 1200 nM.

The compound `O=C1CN(S(=O)(=O)CCc2ccc(Cl)s2)CCN1Cc1cc2c[nH]ccc-2n1` registered a Ki on Coagulation factor X of 128 nM.

On Coagulation factor X, `O=C1CN(S(=O)(=O)c2cc3ccc(Cl)nc3s2)CCN1Cc1cc2c[nH]ccc-2n1` gave a Ki of 4 nM.

On Coagulation factor X, `O=C1CN(S(=O)(=O)c2cc3cccnc3s2)CCN1Cc1cc2c[nH]ccc-2n1` showed an inhibition constant (Ki) of over 1200 nM.

`O=C1CN(S(=O)(=O)c2cc3ccc(Cl)cc3s2)CCN1Cc1cc2c[n+]([O-])ccc2[nH]1`: the inhibition constant Ki on Serine protease 1 is over 2900 nM; on Prothrombin it was over 3900 nM; at Coagulation factor X it was 38 nM.

In the case of `O=C1CN(S(=O)(=O)c2cc3ccc(Cl)cc3s2)CCN1Cc1cc2cnccc2o1`, the results for the Ki at Serine protease 1, at Prothrombin and at Coagulation factor X were over 2900 nM, over 3900 nM and 1220 nM, respectively. In [1], the pKa amounted to 5.8.

The compound `O=C1CN(S(=O)(=O)c2cc3ccc(Cl)cc3s2)CCN1Cc1cc2c[nH]ccc-2n1` registered a bioavailability in data set [2] of 99%. In data set [5], this compound registered a pKa of 8.3. This compound also yielded a half-life in data set [3] of 36 min. The Ki at Serine protease 1 is over 2900 nM; at Prothrombin it was 2900 nM. Moreover, in data set [4], the maximum concentration (Cmax) came out at 658 nM. The Concentration in the data set filed under Homo sapiens worked out at 2 µM; in the data set filed under Canis familiaris, 5 µM. This compound also registered an Absorption in the data set with Caco-2 of 6%.

In [6], `O=C1CN(S(=O)(=O)/C=C/c2ccc(Cl)s2)CCN1Cc1cc2c[nH]ccc-2n1` came in with a bioavailability of 97%. The compound further gave a half-life in data set [7] of 52 min. This compound also had a Cmax in data set [8] of 1640 nM. The values for the Concentration in the data set filed under Homo sapiens and in the data set listed under Canis familiaris were 0.59 µM and 2.2 µM, respectively.

`O=C1CN(S(=O)(=O)c2cc3ccccc3s2)CCN1Cc1cc2c[nH]ccc-2n1` yielded a Ki at Coagulation factor X of 959 nM.

On to `O=C1CN(S(=O)(=O)c2ccc(-c3ccc(Cl)cc3)cc2)CCN1Cc1cc2c[nH]ccc-2n1`, for which the inhibition constant Ki on Coagulation factor X is over 1200 nM.

With `O=C1CN(S(=O)(=O)c2cc3ccc(Cl)cc3s2)CCN1Cc1cc2[nH]cccc-2n1`, the figures for the inhibition constant Ki at Serine protease 1, at Prothrombin and on Coagulation factor X were over 2900 nM, over 3900 nM and over 1200 nM, respectively. In addition, in [1], the pKa worked out at 6.9.

In the case of `COC(=O)Cn1c(CN2CCN(S(=O)(=O)c3cc4ccc(Cl)cc4s3)CC2=O)cc2cnccc21`, the inhibitory constant (Ki) on Serine protease 1 was over 2900 nM; on Prothrombin, over 3900 nM; at Coagulation factor X it was 18 nM. The compound also registered an Absorption with Caco-2 of 47.6%.

Regarding `O=C1CN(S(=O)(=O)c2cc3ccc(Cl)cc3s2)CCN1Cc1cc2c(O)[nH]ccc-2n1`, the Ki on Serine protease 1 was over 2900 nM; at Prothrombin it was over 3900 nM; at Coagulation factor X, over 1200 nM.

Turning to `NC(=O)Cn1c(CN2CCN(S(=O)(=O)c3cc4ccc(Cl)cc4s3)CC2=O)cc2cnccc21`, the Ki is over 2900 nM on Serine protease 1, over 3900 nM at Prothrombin and 8 nM at Coagulation factor X. The Absorption in the data set with Caco-2 worked out at 7%.

Consider `O=C1CN(S(=O)(=O)c2cc3ccc(Cl)cc3s2)CCN1Cc1cc2cc[nH]cc-2n1`, for which the inhibition constant Ki is over 2900 nM at Serine protease 1, 3900 nM at Prothrombin and 45 nM on Coagulation factor X. Besides, the pKa in data set [1] was 8.

`Nc1[nH]ccc2nc(CN3CCN(S(=O)(=O)c4cc5ccc(Cl)cc5s4)CC3=O)cc1-2`: the Ki is over 2900 nM at Serine protease 1 and over 3900 nM at Prothrombin. For the same compound, the pKa in data set [1] stood at 9.3.

At Coagulation factor X, `O=C1CN(S(=O)(=O)c2cc3ncccc3s2)CCN1Cc1cc2c[nH]ccc-2n1` yielded a Ki of over 1200 nM.

On Coagulation factor X, `COc1cc(/C=C/S(=O)(=O)N2CCN(Cc3cc4c[nH]ccc-4n3)C(=O)C2)sc1Cl` came in with an inhibition constant (Ki) of over 1200 nM.

In the case of `O=C1CN(S(=O)(=O)/C=C/c2ccc(Cl)cc2)CCN1Cc1cc2c[nH]ccc-2n1`, on Coagulation factor X, the affinity corresponds to a Ki of 48 nM.

On to `O=C1CN(S(=O)(=O)c2sc3ccccc3c2Cl)CCN1Cc1cc2c[nH]ccc-2n1`, for which, at Coagulation factor X, the inhibition constant (Ki) is over 1200 nM.

Turning to `O=C1CN(S(=O)(=O)c2cc3ccc(Br)cc3s2)CCN1Cc1cc2c[nH]ccc-2n1`, the Ki at Coagulation factor X is 3 nM.

Regarding `O=C(O)Cn1c(CN2CCN(S(=O)(=O)c3cc4ccc(Cl)cc4s3)CC2=O)cc2cnccc21`, the Ki was over 2900 nM at Serine protease 1, over 3900 nM on Prothrombin and 154 nM at Coagulation factor X.
